Data published in publication PMC7614687, “Modulation of the substrate specificity of the kinase PDK1 by distinct conformations of the full-length protein*” (Science signaling, 2023).
Several values for one entry are separate records, joined by “and”; a condition that tells them apart may be missing. Identical values can stand only once. Like-named read-outs stand apart in the source and are kept apart here.

Assays:
[1] = molecular target: T1, PDK1_1-556 (Homo sapiens, UniProt O15530); experiment: Differential scanning fluorimetry, thermal stability of PDK1_1-556; type: binding; settings: PDK1 1 μM
T1 construct: effect of HYG8 on the thermal stability (ΔTm) of PDK1_1-556 (H) and PDK1_50-359 (I); His (N); made in house; host or cells: Sf9 insect cells (baculovirus)
T1 sequence (O15530 1-556): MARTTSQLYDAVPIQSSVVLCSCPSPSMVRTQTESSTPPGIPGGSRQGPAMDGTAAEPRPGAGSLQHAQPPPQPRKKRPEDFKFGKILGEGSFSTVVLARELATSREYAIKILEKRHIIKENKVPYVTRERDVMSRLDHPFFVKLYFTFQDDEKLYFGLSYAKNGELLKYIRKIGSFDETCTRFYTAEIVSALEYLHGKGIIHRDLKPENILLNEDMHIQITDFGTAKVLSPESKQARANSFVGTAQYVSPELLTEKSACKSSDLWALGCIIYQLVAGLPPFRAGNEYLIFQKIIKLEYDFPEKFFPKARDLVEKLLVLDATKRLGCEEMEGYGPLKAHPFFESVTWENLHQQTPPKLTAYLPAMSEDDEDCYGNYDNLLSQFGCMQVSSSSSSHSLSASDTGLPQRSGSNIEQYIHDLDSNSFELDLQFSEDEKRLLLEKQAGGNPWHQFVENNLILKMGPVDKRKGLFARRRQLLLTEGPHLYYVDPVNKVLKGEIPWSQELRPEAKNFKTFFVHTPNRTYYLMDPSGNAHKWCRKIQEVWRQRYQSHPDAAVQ
Protocol: The thermal stability of PDK1 was assessed by monitoring the unfolding of PDK1 by the increase in the fluorescence of SYPRO Orange (Invitrogen) using a real-time PCR device (StepOnePlus, Applied Biosystems and BioRad CFX96) following a previously described protocol ([70]). The reactions were performed in a final volume of 10 μl in white 96-well PCR microtiter plates (Greiner) and contained 1 μM PDK1, 10 mM HEPES (pH 7.5), 150 mM NaCl, 1/1000 SYPRO Orange and 1 mM dithiothreitol. For valsartan, the assay buffer was modified to exclude NaCl. PIFtide or compounds (at a final DMSO concentration of 1%) were added to this reaction mixture. The temperature gradient was performed in steps of 0.3 °C in the range from 25 to 70 °C. To calculate the Tm values, data were exported to GraphPad Prism and curves fitted to a Boltzmann sigmoidal equation with an acceptable confidence interval of 95%. Statistical analysis was performed with Infostat software (http://www.infostat.com.ar) and GraphPad Prism by first verifying a normal distribution of pooled residuals (Shapiro-Wilks test) and homogeneity of variance (F test), and then performing a one-way ANOVA followed by the post hoc comparisons test indicated in each figure legend.

[2] = molecular target: T2, PDK1 (Homo sapiens, UniProt O15530); experiment: Thermo Fisher "PDK1 Direct" assay (peptide Ser/Thr 07, FRET readout); type: biochemical; settings: for Hill slope, PDK1 direct / IC50: 10-point titration
T2 sequence (O15530 1-556): T1 sequence (O15530 1-556)

[3] = molecular target: T3, GST-PDK1_1-556 (Homo sapiens, UniProt O15530); experiment: AlphaScreen biotin-PIP3 / GST-PDK1_1-556 displacement; type: binding; settings: PIP3 20 nM, GST-PDK1 3 nM
T3 construct: made in house; host or cells: HEK293 cells (transient transfection of pEBG2T); peptide synthesized by Pepscan
T3 sequence (O15530 1-556): T1 sequence (O15530 1-556)
Protocol: (§1) The AlphaScreen® assay was performed following the general guidelines from the manufacturer (Perkin Elmer) ([29]). In short, the assay was performed in a final volume of 25 μl in white 384-well microtiter plates (Greiner) in a standard buffer containing 50 mM Tris-HCl (pH 7.4), 100 mM NaCl, 2 mM DTT, 0.01% (v/v) Tween-20 and 0.1% (w/v) BSA, with the addition of 5 μl of beads (anti-GST coated acceptor beads and streptavidin-coated donor beads; nickel chelate-coated acceptor beads and streptavidin-coated donor beads; or nickel chelate-coated acceptor beads and GSH-coated donor beads, 20 μg/ml final concentrations for each bead type). AlphaScreen assays for His-tagged proteins and GST-fusion proteins were performed using nickel chelate-coated acceptor beads and GSH-coated donor beads; alphascreen assays for His-tagged proteins and biotinylated molecules were performed using nickel chelate-coated acceptor beads and streptavidin-coated donor beads; alphascreen assays for GST-fusion proteins and biotinylated molecules were performed using anti-GST coated acceptor beads and streptavidin-coated donor beads (Perkin Elmer).
The conditions for each AlphaScreen assay were identified in cross-titration experiments for each interaction to choose the ideal pair of concentrations within the linear range of the interactions. As required, the standard conditions were modified to use less material, to increase binding of the interacting molecules, to lower background signal, and so on. His-PDK1 and GST-fusion protein in the presence or absence of the different compounds were incubated in the dark for 60 min at room temperature and the emission of light from the acceptor beads was measured in an EnVision reader (Perkin Elmer) or Spark plate reader (Tecan). AlphaScreen assays were performed at least twice, although most experiments were performed multiple times by different researchers with different batches of purified proteins with similar results.
Biotin-PIP3 interactions with GST-PDK1_1-556 or GST-PDK1_360-556 were assessed in the standard buffer. […]

[4] = molecular target: T4, His-PDK1_1-556 and GST-PDK1_360-556 (Homo sapiens, UniProt O15530); experiment: AlphaScreen PDK1 dimerization assay His-PDK1_1-556 / GST-PDK1_360-556; type: binding
T4 construct: made in house; host or cells: Sf9 insect cells (His-PDK1_1-556); HEK293 cells (GST-PDK1_360-556)
T4 sequence (O15530 1-556): T1 sequence (O15530 1-556)
Protocol: as §1
The conditions for each AlphaScreen assay were identified in cross-titration experiments for each interaction to choose the ideal pair of concentrations within the linear range of the interactions. […] His-PDK1 and GST-fusion protein in the presence or absence of the different compounds were incubated in the dark for 60 min at room temperature and the emission of light from the acceptor beads was measured in an EnVision reader (Perkin Elmer) or Spark plate reader (Tecan). […]

[5] = replicate point 1, read-out: % Inhibition Point 1
[6] = replicate point 2, read-out: % Inhibition Point 2
[7] = single point, N=2, read-out: Inhibition at 1 μM (%)
[8] = absence of PIFtide, read-out: IC50 (nM), displacement of His-PDK1_1-556 interaction with GST-PDK1_360-556
[9] = with PIFtide, read-out: IC50 (nM), displacement of His-PDK1_1-556 interaction with GST-PDK1_360-556 with PIFtide

Tm (°C), temperature stabilization of PDK1_1-556 ([1]; compound 1 µM)	Tm (°C), temperature stabilization of PDK1_1-556 ([1]; compound 20 µM)	inhibition at 1 µM [2, 5] [%]	inhibition at 1 µM [2, 6] [%]	inhibition at 1 µM [2, 7] [%]	Hill slope, PDK1 direct [2]	IC50 [2] [nM]	displacement of PIP3 from GST-PDK1_1-556 [3]	IC50 [4, 8] [nM]	IC50 [4, 9] [nM]	Structure (SMILES)
15.2 °C and 11-15 °C	16.5 °C and 13-16 °C	98	101	100	1.61	16.2	almost completely displaced	29.6	29.4	CCCCO[C@H]1[C@@H](OP(=O)(O)O)[C@H](OP(=O)(O)O)[C@@H](OP(=O)(O)O)[C@H](OP(=O)(O)O)[C@H]1OP(=O)(O)O [HYG14, 2-O-butyl-IP5]
11.7 °C and 11-15 °C	13.7 °C and 13-16 °C	97	98	98	1.39	24.5	higher potency than IP5	33.3	19.5	O=C(O[C@H]1[C@@H](OP(=O)(O)O)[C@H](OP(=O)(O)O)[C@@H](OP(=O)(O)O)[C@H](OP(=O)(O)O)[C@H]1OP(=O)(O)O)c1ccccc1 [HYG8, 2-O-benzoyl-IP5]
